Values quoted from earlier work, collected in patent US9339030B2, “Foamable pesticide compositions and methods of application” (BASF Corporation, priority 2009, dated 2016).

Tests used:
ants = conditions: general statement, no experiment described
termites = conditions: general statement, no experiment described

N#Cc1nn(-c2c(Cl)cc(C(F)(F)F)cc2Cl)c(N)c1[S+]([O-])C(F)(F)F (racemic) [fipronil, (±)-5-amino-1-(2,6-dichloro-α,α,α-trifluoro-p-tolyl)-4-trifluoromethylsulfinylpyrazole-3-carbonitrile]
dose toxic to ants (ants): about 1 nanogram per ant | dose toxic to termites (termites): 2 nanograms per termite
